Results published in ChEMBL document CHEMBL1133518, “5-[1'-(2'-N-Arylsulfonyl-1',2',3',4'-tetrahydroisoquinolyl)]-4, 5-dihydro-2(3H)-furanones: positive allosteric modulators of the GABA(A) receptor with a new mode of action” (J Med Chem, 2000).
Activity calls are given as the source filed them. The rule behind the calls is not given here.

What was measured:
[1] = target: T1, GABA-A receptor; anion channel (Rattus norvegicus) (UniProt O09028+P15431+P18506+P18508+P19969+P20236+P23574+P23576+P28471+P28473+P30191+P62813+P63079+P63138+Q91ZM7+Q9ES14); experiment: In vitro displacement of [3H]muscimol from Gamma-aminobutyric acid A receptor of rat brain membranes, slight stimulation activity; assay type: cell membranes; conditions: Membrane
[2] = target: T1, GABA-A receptor; anion channel (Rattus norvegicus); experiment: In vitro displacement of [35S]TBPS from Gamma-aminobutyric acid A receptor of rat brain membranes; assay type: cell membranes; design: concentration or dose not given beside the values; conditions: Membrane
[3] = target: T2, GABA-A receptor; alpha-1/beta-2/gamma-2 (Rattus norvegicus) (UniProt P18508+P62813+P63138); experiment: Percent stimulation of Cl- current in Xenopus laevis oocytes expressing rat GABA-A alpha-1-beta-2-gamma-2 subunits at 100 uM; assay type: functional, cell-based; conditions: Oocyte
[4] = target: T1, GABA-A receptor; anion channel (Rattus norvegicus); experiment: (§1) Displacement of [3H]flunitrazepam from GABA-A receptor of rat forebrain; design: concentration or dose not given beside the values
[5] = target: T1, GABA-A receptor; anion channel (Rattus norvegicus); experiment: (§2) Displacement of [3H]flunitrazepam from GABA-A receptor of rat cerebellum; assay type: tissue-based; design: concentration or dose not given beside the values
[6] = target: T1, GABA-A receptor; anion channel (Rattus norvegicus); experiment: In vitro displacement of [3H]muscimol from Gamma-aminobutyric acid A receptor of rat brain membranes; assay type: cell membranes; conditions: Membrane
[7] = target: T1, GABA-A receptor; anion channel (Rattus norvegicus); experiment: In vitro displacement of [3H]muscimol from Gamma-aminobutyric acid A receptor of rat brain membranes (15% stimulation); assay type: cell membranes; conditions: Membrane
[8] = target: GABA-A receptor; anion channel; experiment: as §2; assay type: tissue-based
[9] = target: GABA-A receptor; anion channel; experiment: as §1
[10] = target: T1, GABA-A receptor; anion channel (Rattus norvegicus); experiment: In vitro displacement of [3H]muscimol from Gamma-aminobutyric acid A receptor of rat brain membranes, range 5-10% stimulation; assay type: cell membranes; conditions: Membrane
[11] = target: T2, GABA-A receptor; alpha-1/beta-2/gamma-2 (Rattus norvegicus); experiment: Percent stimulation of 5-alpha-pregnan-3-alpha-ol-20-one elicited Cl- current in Xenopus laevis oocytes expressing rat GABA-A alpha-1-beta-2-gamma-2 subunits at 30 uM; assay type: functional, cell-based; conditions: Oocyte
[12] = target: T2, GABA-A receptor; alpha-1/beta-2/gamma-2 (Rattus norvegicus); experiment: Percent stimulation of pentobarbital elicited Cl- current in Xenopus laevis oocytes expressing rat GABA-A alpha-1-beta-2-gamma-2 subunits at 30 uM; assay type: functional, cell-based; conditions: Oocyte

SMILES	Displacement [1]	Displacement [2]	Stimulation [3]	Displacement [4]	Displacement [5]	Displacement [6]	Displacement [7]	IC50 [8]	IC50 [9]	Displacement [10]	Stimulation [11]	Stimulation [12]
CN(C)S(=O)(=O)N1CCc2ccccc2[C@@H]1[C@H]1CCC(=O)O1	inactive	0%	62%	20%	20%							
CS(=O)(=O)N1CCc2ccccc2[C@@H]1[C@H]1CCC(=O)O1		0%	32%	20%	26%	0%						
O=C1CC[C@H]([C@H]2c3ccccc3CCN2S(=O)(=O)c2ccc(C(F)(F)F)cc2)O1		0%	90%	30%	42%	0%						
O=C1CC[C@H]([C@H]2c3ccccc3CCN2S(=O)(=O)c2ccc3ccccc3c2)O1		0%	118%	9%	14%		15%					
O=C1CC[C@H]([C@H]2c3ccccc3CCN2S(=O)(=O)c2cccs2)O1		25%	353%	47%	66%	0%						
O=C1CC[C@H]([C@H]2c3ccccc3CCN2C(=O)OCc2ccccc2)O1 (racemic)		0%	351%			0%		60 nM	160 nM			
Cc1ccc(S(=O)(=O)N2CCc3ccccc3[C@@H]2[C@H]2CCC(=O)O2)cc1 (racemic)		15%	579%	49%	66%					10%		
O=C1CC[C@H]([C@H]2c3ccccc3CCN2S(=O)(=O)c2ccc(Cl)cc2)O1 (racemic)	inactive	60%	479%	30%	43%							
O=C1CC[C@H]([C@H]2c3ccccc3CCN2S(=O)(=O)c2ccccc2)O1 (racemic)	inactive	50%	423%	66%	74%							
Cc1ccc(S(=O)(=O)N2CCc3ccccc3[C@@H]2[C@H]2CCC(=O)O2)cc1 (stereo in doubt)			859%	49%	67%						644%	588%
Cc1ccc(S(=O)(=O)N2CCc3ccccc3[C@@H]2[C@H]2CCC(=O)O2)cc1 (stereo in doubt; 2c)			184%	35%	61%							
